Measurements reported in patent publication US9630931B2, “Pharmaceutically active pyrazine derivatives” (Sentinel Oncology Limited, priority 2011, dated 2017).
Structures can show the parent of a compound that is named as a salt.

Experiments:
[1] = system: MYC oncogene driven murine spontaneous cancer model; conditions: cited from earlier work
[2] = system: thirty ovarian cancer cell lines; conditions: cited from earlier work
[3] = system: triple negative negative breast cancer cells; conditions: cited from earlier work
MV4-11 cells = experiment: Inhibition of cell growth in MV4-11 cells (Alamar blue, 72 h); format: cell-based; conditions: Homo sapiens, 72 h incubation
Protocol: (§1) Studies were carried out to test the effect of compounds on the inhibition of cell growth in MOLM-13 and MV4-11 cells.
(§2) The following protocol was used:
(§3) (a) Cells were seeded in 96-well plates at cell densities of 2500/well (MOLM-13) and 10,000/well (MV4-11). Cells were then incubated overnight prior to addition of compound or vehicle control.
(§4) (b) Test compounds were prepared from 10 mM DMSO stocks to give a final concentration range of 10 μM, 3 μM, 1 μM, 0.3 μM, […], 0.03 μM, 0.01 μM, […] vehicle control. The DMSO content was constant at 0.1%.
(§5) (c) Test compounds were incubated with the cells for 72 h at 37° C. 5% CO2 in a humidified atmosphere.
(§6) (d) Alamar blue 10% (v/v) was then added and incubated for a further 4 h, and fluorescent product detected using the BMG FLUOstar plate reader.
(§7) (e) Media only background values were subtracted and the data analysed using a 4-parameter logistic equation in GraphPad Prism.

MOLM-13 cells = experiment: Inhibition of cell growth in MOLM-13 cells (Alamar blue, 72 h); format: cell-based; conditions: Homo sapiens, 72 h incubation
Protocol: as §1, §2, §3, §4, §5, §6, §7

Chk-1 kinase = Chk-1 kinase (Homo sapiens (Human), UniProt O14757); experiment: Chk-1 kinase inhibiting activity (33P-ATP radiometric filter assay, CHKtide substrate); format: biochemical; conditions: recombinant full length GST-tagged CHK-1 0.5 nM, CHKtide 20 μM, 120 minutes at room temperature; read-out: IC50 against Chk-1 kinase
Chk-1 kinase, sequence (O14757 whole entry): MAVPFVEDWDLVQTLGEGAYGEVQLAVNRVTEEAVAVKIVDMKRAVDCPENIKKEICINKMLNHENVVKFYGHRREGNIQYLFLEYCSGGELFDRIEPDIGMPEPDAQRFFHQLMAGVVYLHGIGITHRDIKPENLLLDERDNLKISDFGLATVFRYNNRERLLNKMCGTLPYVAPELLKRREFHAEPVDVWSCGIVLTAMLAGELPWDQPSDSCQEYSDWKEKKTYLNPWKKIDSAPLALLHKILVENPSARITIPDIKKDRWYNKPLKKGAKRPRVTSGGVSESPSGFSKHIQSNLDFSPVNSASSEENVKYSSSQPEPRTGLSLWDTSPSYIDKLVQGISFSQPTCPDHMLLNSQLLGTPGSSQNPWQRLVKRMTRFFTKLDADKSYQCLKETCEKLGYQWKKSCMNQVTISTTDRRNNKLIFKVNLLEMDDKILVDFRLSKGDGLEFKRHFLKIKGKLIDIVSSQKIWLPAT
Protocol: The compounds of the invention were tested for activity against Chk-1 kinase using the materials and protocols set out below.
Base Reaction buffer: 20 mM Hepes (pH 7.5), 10 mM MgCl2, 1 mM EGTA, 0.02% Brij35, 0.02 mg/ml BSA, 0.1 mM Na3VO4, 2 mM DTT, 1% DMSO
Required cofactors are added individually to each kinase reaction
(i) Prepare indicated substrate in freshly prepared Base Reaction Buffer
(ii) Deliver any required cofactors to the substrate solution above
(iii) Deliver indicated kinase into the substrate solution and gently mix
(iv) Deliver compounds in DMSO into the kinase reaction mixture
(v) Deliver ^33P-ATP (specific activity 0.01 μCi/μl final) into the reaction mixture to initiate the reaction.
(vi) Incubate kinase reaction for 120 minutes at room temperature
(vii) Reactions are spotted onto P81 ion exchange paper (Whatman #3698-915)
(viii) Wash filters extensively in 0.1% phosphoric acid.
(ix) Dry filters and measure counts in scintillation counter
Recombinant full length construct, N-terminal GST tagged, purified from insect cells.
No special measures were taken to activate this kinase.
Final concentration in assay=0.5 nM
Peptide sequence: [[…]]
Final concentration in assay=20 μM
No additional cofactors are added to the reaction mixture
From the results obtained by following the above protocol, the IC50 values against Chk-1 kinase of a number of the compounds of the Examples were determined and these are shown in Table 3.

Compound	single agent activity in MYC oncogene driven murine spontaneous cancer model [1]	growth of ovarian cancer cell lines [2]	growth of triple negative breast cancer cells [3]	IC50 (MV4-11 cells)	IC50 (MOLM-13 cells)	IC50 (Chk-1 kinase)
Cn1cc(-c2[nH]c3cc(NC(=O)[C@H](N)C4CCCCC4)cc4c3c2C=NNC4=O)cn1 [PF-00477736]	selective single agent activity	inhibits the growth	inhibits the growth			
COc1cc(CCNCCN2CCOCC2)c(Cl)cc1NC(=O)Nc1cnc(C#N)cn1 [Example 7, 1-{5-Chloro-2-methoxy-4-[2-(2-morpholin-4-yl-ethylamino)-ethyl]-phenyl}-3-(5-cyano-pyrazin-2-yl)-urea hydrochloride]				295 nM	113 nM	0.8 nM
COc1cc(CCNC[C@H]2CNCCO2)c(Cl)cc1NC(=O)Nc1cnc(C#N)cn1 [Example 4, 1-(5-Chloro-2-methoxy-4-{2-[((S)-1-morpholin-2-ylmethyl)-amino]-ethyl}-phenyl)-3-(5-cyano-pyrazin-2-yl)-urea hydrochloride]				111 nM	49 nM	0.05 nM
CC(C)Oc1cc(CCNCCN2CCOCC2)c(Cl)cc1NC(=O)Nc1cnc(C#N)cn1 [Example 8, 1-{5-Chloro-2-isopropoxy-4-[2-(2-morpholin-4-yl-ethylamino)-ethyl]-phenyl}-3-(5-cyano-pyrazin-2-yl)-urea hydrochloride]				38 nM	28 nM	0.75 nM
COc1cc(CCNC[C@@H]2CNCCO2)c(Cl)cc1NC(=O)Nc1cnc(C#N)cn1 [Example 3, 1-(5-Chloro-2-methoxy-4-{2-[((R)-1-morpholin-2-ylmethyl)-amino]-ethyl}-phenyl)-3-(5-cyano-pyrazin-2-yl)-urea hydrochloride]				173 nM	81 nM	0.14 nM
COc1cc(CCNCC2CNCCO2)c(Cl)cc1NC(=O)Nc1cnc(C#N)cn1 (stereo not drawn) [Example 2, 1-(5-Chloro-2-methoxy-4-{2-[(morpholin-2-ylmethyl)-amino]-ethyl}-phenyl)-3-(5-cyano-pyrazin-2-yl)-urea hydrochloride]				209 nM	26 nM	0.09 nM
N#Cc1cnc(NC(=O)Nc2ccc(CCNCC3CCCCC3)c(Cl)c2)cn1 [Example 12, 1-{3-Chloro-4-[2-(cyclo-hexylmethyl-amino)-ethyl]-phenyl}-3-(5-cyano-pyrazin-2-yl)-urea hydrochloride]				740 nM	1600 nM	30 nM
